The target of one assay is B-Raf V600E (Homo sapiens (Human), UniProt P15056, V600E). Nature of the assay: B-Raf V600E kinase biochemical activity assay (AlphaScreen, biotin-MEK1 substrate). The conditions noted are these: 100 μM ATP. Put shortly:
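B-Raf V600E (0.1 ng) phosphorylated 100 nM biotin-MEK1 with 100 μM ATP (final) in HEPES pH 7.0 with Mg2+/Mn2+ for 45 min at room temperature. Compounds were tested over an 8-point serial dilution. Phospho-MEK1/2 was detected by AlphaScreen after 3 h with beads, and IC50 came from signal versus concentration.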

The test system of assay [1] is COLO205 colon adenocarcinoma cells (B-Raf V600E mutation). Nature of the assay: COLO205 cell growth inhibition (ATPlite). The class given is cell-based. The conditions noted are these: Homo sapiens, COLO 205, 72 h, 3 days. Put shortly: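 Cells treated for 3 days at 37 °C, 5% CO2 with an 8-point 1:3 dilution series, top final concentration 10 μM, DMSO control. ATPlite luminescence used as a measure of cell number; IC50 from reading versus concentration.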

This note sets out measurements from patent publication US20230277534A1 (Plexxikon Inc., priority 2011, published 2023).

Each structure is given as a SMILES string.

B-Raf V600E, sequence (P15056 whole entry V600E): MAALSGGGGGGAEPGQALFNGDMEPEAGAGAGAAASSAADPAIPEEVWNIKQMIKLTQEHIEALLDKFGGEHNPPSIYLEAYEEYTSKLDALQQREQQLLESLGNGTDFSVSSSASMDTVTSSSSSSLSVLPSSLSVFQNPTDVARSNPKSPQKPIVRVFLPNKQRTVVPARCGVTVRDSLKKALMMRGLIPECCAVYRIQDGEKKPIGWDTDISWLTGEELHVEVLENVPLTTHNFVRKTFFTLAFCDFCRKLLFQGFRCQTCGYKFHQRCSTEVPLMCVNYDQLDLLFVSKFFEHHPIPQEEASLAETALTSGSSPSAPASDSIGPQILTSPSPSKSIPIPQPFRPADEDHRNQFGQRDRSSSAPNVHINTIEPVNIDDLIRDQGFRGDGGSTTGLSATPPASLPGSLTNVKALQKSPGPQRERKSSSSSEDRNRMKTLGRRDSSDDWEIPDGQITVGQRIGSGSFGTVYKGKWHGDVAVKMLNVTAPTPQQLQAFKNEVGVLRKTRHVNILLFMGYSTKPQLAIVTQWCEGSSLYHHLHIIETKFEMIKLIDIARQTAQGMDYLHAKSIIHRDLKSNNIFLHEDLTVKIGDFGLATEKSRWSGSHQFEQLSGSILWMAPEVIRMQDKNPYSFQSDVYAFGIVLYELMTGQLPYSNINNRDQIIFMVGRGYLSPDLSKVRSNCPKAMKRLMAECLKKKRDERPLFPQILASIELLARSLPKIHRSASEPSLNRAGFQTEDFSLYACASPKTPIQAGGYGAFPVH

In the case of `CCN(C)S(=O)(=O)Nc1ccc(F)c(C(=O)c2c[nH]c3ncc(-c4cnc(N5CCOCC5)nc4)cc23)c1F` [Compound P-0258, 4-[5-[3-[3-[[ethyl(methyl)sulfamoyl]amino]-2,6-difluoro-benzoyl]-1H-pyrrolo[2,3-b]pyridin-5-yl]pyrimidin-2-yl]morpholine], the values for the half-maximal inhibitory concentration (IC50) (on B-Raf V600E; in assay [1]) were under 0.1 µM and under 1 µM, respectively.
For `CCN(C)S(=O)(=O)Nc1ccc(F)c(C(=O)c2c[nH]c3ncc(-c4cccc(N5CCOCC5)c4)cc23)c1F` [Compound P-0259, 4-[3-[3-[3-[[ethyl(methyl)sulfamoyl]amino]-2,6-difluoro-benzoyl]-1H-pyrrolo[2,3-b]pyridin-5-yl]phenyl]morpholine], the concentration for half-maximal inhibition (IC50) against B-Raf V600E is under 0.1 µM; in assay [1] it was under 1 µM.
For `CN1CCN(c2ncc(-c3cnc4[nH]cc(C(=O)c5c(F)ccc(NS(=O)(=O)N6CCCC6)c5F)c4c3)cn2)CC1` [Compound P-0260, N-[2,4-difluoro-3-[5-[2-(4-methylpiperazin-1-yl)pyrimidin-5-yl]-1H-pyrrolo[2,3-b]pyridine-3-carbonyl]phenyl]pyrrolidine-1-sulfonamide], the values for the 50% inhibitory concentration (IC50) (at B-Raf V600E; in assay [1]) were under 0.1 µM and under 1 µM, respectively.
In the case of `O=C(c1c(F)ccc(NS(=O)(=O)N2CCCC2)c1F)c1c[nH]c2ncc(-c3cnc(N4CCNCC4)nc3)cc12` [Compound P-0261, N-[2,4-difluoro-3-[5-(2-piperazin-1-ylpyrimidin-5-yl)-1H-pyrrolo[2,3-b]pyridine-3-carbonyl]phenyl]pyrrolidine-1-sulfonamide], the half-inhibitory concentration (IC50) against B-Raf V600E is under 0.1 µM; in assay [1], under 1 µM.
Consider `O=C(c1c(F)ccc(NS(=O)(=O)N2CCCC2)c1F)c1c[nH]c2ncc(-c3cnc(N4CCC(O)CC4)nc3)cc12` [Compound P-0262, N-[2,4-difluoro-3-[5-[2-(4-hydroxy-1-piperidyl)pyrimidin-5-yl]-1H-pyrrolo[2,3-b]pyridine-3-carbonyl]phenyl]pyrrolidine-1-sulfonamide], for which the figures for the 50% inhibitory concentration (IC50) (on B-Raf V600E; in assay [1]) were under 0.1 µM and under 1 µM, respectively.
Consider `CCN(C)S(=O)(=O)Nc1ccc(F)c(C(=O)c2c[nH]c3ncc(-c4cnc(N5CCN(C)CC5)nc4)cc23)c1F` [Compound P-0263, 3-[3-[[ethyl(methyl)sulfamoyl]amino]-2,6-difluoro-benzoyl]-5-[2-(4-methylpiperazin-1-yl)pyrimidin-5-yl]-1H-pyrrolo[2,3-b]pyridine], for which the values for the half-inhibitory concentration (IC50) (on B-Raf V600E; in assay [1]) were under 0.1 µM and under 1 µM, respectively.
For `CCN(C)S(=O)(=O)Nc1ccc(F)c(C(=O)c2c[nH]c3ncc(-c4cnc(N5CCNCC5)nc4)cc23)c1F` [Compound P-0268, 3-[3-[[ethyl(methyl)sulfamoyl]amino]-2,6-difluoro-benzoyl]-5-(2-piperazin-1-ylpyrimidin-5-yl)-1H-pyrrolo[2,3-b]pyridine], the 50% inhibitory concentration (IC50) against B-Raf V600E was under 0.1 µM; in assay [1], under 1 µM.
On the same counts, the results for `O=C(c1c(F)ccc(NS(=O)(=O)N2CCCC2)c1F)c1c[nH]c2ncc(-c3cnc(N4CCC4)nc3)cc12` [Compound P-0269, N-[3-[5-[2-(azetidin-1-yl)pyrimidin-5-yl]-1H-pyrrolo[2,3-b]pyridine-3-carbonyl]-2,4-difluoro-phenyl]pyrrolidine-1-sulfonamide] are under 0.1 µM and under 1 µM.
As for `C[C@@H]1CCN(S(=O)(=O)Nc2cccc(C(=O)c3c[nH]c4ncc(-c5cnc(C6CC6)nc5)cc34)c2F)C1` [Compound P-0271, (3R)—N-[3-[5-(2-cyclopropylpyrimidin-5-yl)-1H-pyrrolo[2,3-b]pyridine-3-carbonyl]-2-fluoro-phenyl]-3-methyl-pyrrolidine-1-sulfonamide], the results for the 50% inhibitory concentration (IC50) (against B-Raf V600E; in assay [1]) were under 0.1 µM and under 1 µM, respectively.
For the compound `O=C(c1cccc(NS(=O)(=O)N2CCCC2)c1F)c1c[nH]c2ncc(C3CC3)cc12` [Compound P-0274, N-[3-(5-cyclopropyl-1H-pyrrolo[2,3-b]pyridine-3-carbonyl)-2-fluoro-phenyl]pyrrolidine-1-sulfonamide], the IC50 on B-Raf V600E is under 0.1 µM; in assay [1], over 1 µM.
On to `CCN(C)S(=O)(=O)Nc1ccc(F)c(C(=O)c2c[nH]c3ncc(-c4cnc(N5CCC(O)CC5)nc4)cc23)c1F` [Compound P-0275, 3-[3-[[ethyl(methyl)sulfamoyl]amino]-2,6-difluoro-benzoyl]-5-[2-(4-hydroxy-1-piperidyl)pyrimidin-5-yl]-1H-pyrrolo[2,3-b]pyridine], for which the IC50 is under 0.1 µM against B-Raf V600E and under 1 µM in assay [1].
On to `CCN(C)S(=O)(=O)Nc1ccc(F)c(C(=O)c2c[nH]c3ncc(-c4cccc(C5(C#N)CC5)c4)cc23)c1F` [Compound P-0276, 5-[3-(1-cyanocyclopropyl)phenyl]-3-[3-[[ethyl(methyl)sulfamoyl]amino]-2,6-difluoro-benzoyl]-1H-pyrrolo[2,3-b]pyridine], for which the concentration for half-maximal inhibition (IC50) against B-Raf V600E is under 0.1 µM; in assay [1], over 1 µM.
Regarding `CCN(C)S(=O)(=O)Nc1ccc(F)c(C(=O)c2c[nH]c3ncc(-c4cnc(N5CCC5)nc4)cc23)c1F` [Compound P-0277, 5-[2-(azetidin-1-yl)pyrimidin-5-yl]-3-[3-[[ethyl(methyl)sulfamoyl]amino]-2,6-difluoro-benzoyl]-1H-pyrrolo[2,3-b]pyridine], the IC50 was over 0.1 µM at B-Raf V600E and under 1 µM in assay [1].
Regarding `Nc1ncc(-c2cnc3[nH]cc(C(=O)c4c(F)ccc(NS(=O)(=O)N5CCCC5)c4F)c3c2)cn1` [Compound P-0279, N-[3-[5-(2-aminopyrimidin-5-yl)-1H-pyrrolo[2,3-b]pyridine-3-carbonyl]-2,4-difluoro-phenyl]pyrrolidine-1-sulfonamide], the IC50 against B-Raf V600E is under 0.1 µM; in assay [1], under 1 µM.
Regarding `O=C(c1cccc(NS(=O)(=O)N2CCCC2)c1F)c1c[nH]c2ncc(-c3ccncc3)cc12` [Compound P-0281, N-[2-fluoro-3-[5-(4-pyridyl)-1H-pyrrolo[2,3-b]pyridine-3-carbonyl]phenyl]pyrrolidine-1-sulfonamide], the IC50 at B-Raf V600E is under 0.1 µM; in assay [1] it was under 1 µM.
Turning to `O=C(c1c(F)ccc(NS(=O)(=O)N2CCCC2)c1F)c1c[nH]c2ncc(-c3ccnc(N4CCOCC4)n3)cc12` [Compound P-0282, N-[2,4-difluoro-3-[5-(2-morpholinopyrimidin-4-yl)-1H-pyrrolo[2,3-b]pyridine-3-carbonyl]phenyl]pyrrolidine-1-sulfonamide], the IC50 against B-Raf V600E was under 0.1 µM; in assay [1] it was under 1 µM.
With `CCN(C)S(=O)(=O)Nc1ccc(F)c(C(=O)c2c[nH]c3ncc(-c4ccnc(F)c4)cc23)c1F` [Compound P-0283, 3-[3-[[ethyl(methyl)sulfamoyl]amino]-2,6-difluoro-benzoyl]-5-(2-fluoro-4-pyridyl)-1H-pyrrolo[2,3-b]pyridine], the 50% inhibitory concentration (IC50) against B-Raf V600E is under 0.1 µM; in assay [1], under 1 µM.
In the case of `CN1CCN(c2cc(-c3cnc4[nH]cc(C(=O)c5c(F)ccc(NS(=O)(=O)N6CCCC6)c5F)c4c3)ccn2)CC1` [Compound P-0285, N-[2,4-difluoro-3-[5-[2-(4-methylpiperazin-1-yl)-4-pyridyl]-1H-pyrrolo[2,3-b]pyridine-3-carbonyl]phenyl]pyrrolidine-1-sulfonamide], the 50% inhibitory concentration (IC50) against B-Raf V600E is under 0.1 µM; in assay [1], under 1 µM.
On the same counts, the results for `O=C(c1c(F)ccc(NS(=O)(=O)N2CC[C@H](F)C2)c1F)c1c[nH]c2ncc(-c3cnc(C4CC4)nc3)cc12` [Compound P-0289, (3S)—N-[3-[5-(2-cyclopropylpyrimidin-5-yl)-1H-pyrrolo[2,3-b]pyridine-3-carbonyl]-2,4-difluoro-phenyl]-3-fluoro-pyrrolidine-1-sulfonamide] are under 0.1 µM and under 1 µM.
Take `CCN(C)S(=O)(=O)Nc1ccc(F)c(C(=O)c2c[nH]c3ncc(-c4cnc(N5CCCC5)nc4)cc23)c1F` [Compound P-0293, 3-[3-[[ethyl(methyl)sulfamoyl]amino]-2,6-difluoro-benzoyl]-5-(2-pyrrolidin-1-ylpyrimidin-5-yl)-1H-pyrrolo[2,3-b]pyridine]: the 50% inhibitory concentration (IC50) at B-Raf V600E was under 0.1 µM; in assay [1], under 1 µM.
In the case of `CCN(C)S(=O)(=O)Nc1cccc(C(=O)c2c[nH]c3ncc(C4CCC4)cc23)c1F` [Compound P-0297, 5-cyclobutyl-3-[3-[[ethyl(methyl)sulfamoyl]amino]-2-fluoro-benzoyl]-1H-pyrrolo[2,3-b]pyridine], the IC50 against B-Raf V600E was under 0.1 µM; in assay [1], over 1 µM.
Consider `CCN(C)S(=O)(=O)Nc1cccc(C(=O)c2c[nH]c3ncc(C4CC4)cc23)c1F` [Compound P-0298, 5-cyclopropyl-3-[3-[[ethyl(methyl)sulfamoyl]amino]-2-fluoro-benzoyl]-1H-pyrrolo[2,3-b]pyridine], for which the IC50 was under 0.1 µM against B-Raf V600E and over 1 µM in assay [1].
Regarding `Nc1cc(-c2cnc3[nH]cc(C(=O)c4cccc(NS(=O)(=O)N5CCCC5)c4F)c3c2)ncn1` [Compound P-0299, N-[3-[5-(6-aminopyrimidin-4-yl)-1H-pyrrolo[2,3-b]pyridine-3-carbonyl]-2-fluoro-phenyl]pyrrolidine-1-sulfonamide], the figures for the IC50 (on B-Raf V600E; in assay [1]) were under 0.1 µM and over 1 µM, respectively.
With `CCN(C)S(=O)(=O)Nc1ccc(F)c(C(=O)c2c[nH]c3ncc(-c4ccc(C(F)(F)F)cc4)cc23)c1F` [Compound P-0301, 3-[3-[[ethyl(methyl)sulfamoyl]amino]-2,6-difluoro-benzoyl]-5-[4-(trifluoromethyl)phenyl]-1H-pyrrolo[2,3-b]pyridine], the values for the 50% inhibitory concentration (IC50) (at B-Raf V600E; in assay [1]) were under 0.1 µM and over 1 µM, respectively.
In the case of `CCN(C)S(=O)(=O)Nc1ccc(F)c(C(=O)c2c[nH]c3ncc(-c4ccc(N5CCCC5)cc4)cc23)c1F` [Compound P-0303, 3-[3-[[ethyl(methyl)sulfamoyl]amino]-2,6-difluoro-benzoyl]-5-(4-pyrrolidin-1-ylphenyl)-1H-pyrrolo[2,3-b]pyridine], the IC50 at B-Raf V600E was under 0.1 µM; in assay [1], over 1 µM.

By IC50 is commonly meant the midpoint of a concentration-inhibition curve. A lower IC50 goes with greater potency in that assay.
